Results from patent publication US20220047556A1 (INSERM (Institut National de la Santé et de la Recherche …, priority 2018, published 2022).

How the values were obtained:
Assay type in all cases: cell-based, human
[1] = tested on: PD-1 expression in T cells; assay: PD-1 mRNA levels in PMA/Io-activated T cells, real-time qPCR; conditions: T cells incubated 24 h, FIG. 1H
Source text: (H) PD-1 mRNA levels following PMA/Io stimulation of T cells, as assessed by Real-time qPCR. Data are represented as fold change to PMA/Io-activated cells assigned 1. […] Data represented as mean±SEM from 3 (H, J) and 2 (0) independent experiments.
Human colon carcinoma cell lines HT29 (microsatellite-instable (MSI)) and HCT116 (microsatellite-stable (MSS)) cells, BALB/c syngeneic colon carcinoma CT26 cell line, and human T cell lines Jurkat, J.RT3-T3.5 (JRT3), Myla, SeAx and HUT-78, were cultured in DMEM or RPMI 1640 complete media.
(§1) Activation of TCR signaling was performed either with phorbol myristate acetate (PMA) and Ionomycin (Io) or with plate-bound anti-CD3.

[2] = tested on: PD-1 expression in T cells; assay: PD-1 protein expression in PMA/Io-activated T cells, flow cytometry; conditions: T cells incubated 24 h, FIGS. 1I and 1J
Procedure: as §1
Flow cytometry analyzed were performed on Single cell suspension of hPBMCs and T cells using BD Accuri C6 software, or Diva (BD Biosciences) and FlowJo 9.3.2 (TreeStar) softwares (flow cytometry facility of TBM Core).

[3] = tested on: PD-1 positive T cells; assay: Immunofluorescence quantification of PD-1 positive T cells; conditions: activated T cells treated 24 h, FIGS. 1K and 1L
[4] = tested on: NF-κB phosphorylation; assay: phospho-NFκBp65 Western blot and densitometry in T cells after PMA/Io stimulation; conditions: Sulconazole 2 μM, FIG. 1M
[5] = tested on: JRT3 cells (TCR-activation marker CD69); assay: JRT3 functional assay: CD69 in JRT3 cells co-cultured with EPCR-expressing HT29 cells; conditions: 24 h, compared to JRT3 cells cultured alone, FIGS. 1N and 1O
Procedure: The Jurkat T cell line J.RT3-T3.5 (JRT3) stably expressing the human LES-γδ TCR (JRT3-LES) was incubated with the colon cancer cell line HT29 overexpressing the endothelial protein C receptor (HT29-EPCR) (34). The activation of JRT3-LES cells was evaluated by the expression of CD69.

`Clc1ccc(CSC(Cn2ccnc2)c2ccc(Cl)cc2Cl)cc1` (centres unmarked) [Sulconazole, 1-[2-[(4-chlorophenyl)methylsulfanyl]-2-(2,4-dichlorophenyl)ethyl]imidazole] was tested, and the “PD-1 expression at the RNA level” value [1] was “repressed PD-1 expression”, the “PD-1 expression at the protein level” value [2] was “repressed PD-1 expression” and the “reduction of PD-1+ cells” value [3] was 50%. The “NF-κB phosphorylation after PMA/Io stimulation” value [4] was “inhibited” and the “CD69 expression and number of CD69 positive cells” value [5] was “increased in the absence or presence of Sulconazole”.
